Assay results taken from US20080275136A1, “Use of Glycerol for Improving Cardiac Function” (priority 2005, published 2008).
Read-outs that look alike come from different tables or passages of the source.

Assays:
type 2 diabetic patients = conditions: cited from earlier work
heart = conditions: cited from earlier work
[1] = system: isolated neonatal rat cardiomyocytes; conditions: cited from earlier work
perfused rat heart [2] = assay: 14CO2 production from [14C]-glycerol in perfused rat heart (mitochondrial energy production); conditions: energy demand raised from 350 to 450 beats/min; whatever the circulating glycerol concentration (0.33 or 3.33 mM)
Method: (§1) The investigations were carried out on a perfused rat heart model (LOPASCHUK and BARR., 1997, aforementioned, SENTEX et al, 2001, aforementioned, FOLCH et al., J Biol Chem, 226, 497-509, 1957). Male Wistar rats (280-330 g) were anaesthetised with sodium pentobarbital (60 mg per kg, i.p.) and heparin was intravenously injected (500 IU/kg). After 1 min, the hearts were excised and placed in a cold (4° C.) perfusion buffer awaiting contractions ceased. The heart was then immediately cannulated through the aorta and perfused according to the Langendorff method at a constant perfusion pressure of 80 cm of water (8 kPa). […]
(§2) Before use, all solutions were filtered through a 0.8 μm filter (Millipore, Saint Quentin en Yvelines, France) to remove any particulate contaminants. […] The intra-ventricular pressure and the heart rate were recorded together with ECG. Coronary flow was measured by sequentially collecting the effluent. […]
The cardiac capacity to use glycerol as a metabolic substrate in energy production, according to glycerol availability was evaluated using ^14C-radiolabelled glycerol.
The direct measurement of mitochondrial energy production was made by quantitatively collecting ^14CO2 produced from the perfused hearts. […] The hyamine […] was collected every 10 minutes and the radioactivity evaluated.

perfused rat heart [3] = assay: Glycerol uptake in perfused rat heart (total radioactivity of the homogenate)
Method: as §1, with “kPa). The perfusion fluid consisted of a modified Krebs-Henseleit bicarbonate buffer (mM concentrations: NaCl 118, NaHCO3 25, MgSO4 1.2, KH2PO4 1.2, KCl 4.7, glucose 5.5 and CaCl2 2.0).” for “kPa).”
as §2
At the end of the perfusion, the heart was washed out from the remaining radiolabelled medium by 10 mL of Krebs-Henseleit solution injected through the canula. […] The radioactivity of the homogenate was evaluated.
The glycerol uptake was evaluated from the total radioactivity of the homogenate.

perfused rat heart [4] = assay: Incorporation of glycerol in glycerolipids (PL and NPL) in perfused rat heart; conditions: increase in rate
Method: The experiments were performed using the perfusion conditions described in Example 1. At the end of the perfusion, the heart was washed out from the remaining radiolabelled medium by 10 mL of Krebs-Henseleit solution injected through the canula. The hearts were homogenized in 30 mL chloroform/methanol (2/1, v/v) according to FOLCH (1957, aforementioned). The radioactivity of the homogenate was evaluated. A 0.73% NaCl solution was added to the homogenate to cause phase separation. The radioactivity was determined in samples of the aqueous and organic fractions, and the phospholipids (PL) were separated from non-phosphorous lipids (NPL) on silica cartridges (Supelco, Sigma) and the radioactivity of each class was evaluated. The fate of intracellular glycerol was evaluated in these rat hearts by analysing the radioactivity incorporated into phospholipids (PL) and non-phosphorous lipids (NPL), which in the heart represent mainly the triacylglycerol pool.

perfused rat heart [5] = assay: Simultaneous oxidation of [3H]-palmitate and [14C]-glycerol in perfused rat heart; conditions: extracellular glycerol concentration increased; palmitate 0.4 mM
Method: The influence of cardiac energy demand and circulating glycerol concentration on fatty acid metabolism was evaluated in the heart by following the intracellular palmitate fate with [^3H]-palmitate. The experiments were performed using the perfusion conditions described in Example 1, except that a perfusion solution supplemented with palmitate (0.4 mM) was used. To prepare palmitate-enriched solution, 43.5 g of albumin (fraction bovine, Sigma) was dissolved in 350 mL Krebs-Henselheit buffer. Palmitate was then slowly added to this albumin solution and mixed. The albumin-palmitate mixture was dialysed against Krebs-Henselheit solution at +4° C. (three time 12 h dialysis in 10 basal solution volume). For the final preparation of the palmitate-enriched fluid, 93.5 mL of concentrated solution were incorporated in 2 L of Krebs-Henselheit Radioactive solution was prepared in the same conditions with addition of [^3H]-palmitate (1 μCi/mL). The perfusion solution also contained [^14C]-glycerol to follow glycerol oxidation in the same heart. The oxidations of palmitate and glycerol were evaluated simultaneously using as tracers [^3H]-palmitate and [^14C]-GLYCEROL, respectively. At the end of the perfusion, the oxidized substrates were determined by measuring the radioactivity rejected by the heart in the perfusion medium as [^3H]2O and [^14C]O2, respectively.

[6] = as a function of the extracellular glycerol concentration

## CCOC(=O)[C@@]1(CCCCCCOc2ccc(Cl)cc2)CO1 [Etomoxir]
Type 2 diabetic patients
  insulin sensitivity: improve insulin sensitivity
heart; chronic treatment
  cardiac hypertrophy: induced cardiac hypertrophy
heart; normal and diabetic heart
  glucose oxidation: increase glucose oxidation

## COc1ccc(CN2CCNCC2)c(OC)c1OC [Trimetazidine, reference compound]
[1]; Trimetazidine added
  glycerol uptake: increased
  phospholipid synthesis: increased their synthesis only at high glycerol concentrations
  triacylglycerol synthesis: no significant effect
heart; associated with increased phospholipid synthesis
  cellular glycerol uptake: significant increase
heart
  β-oxidation: reduces β-oxidation
heart; in vitro and in vivo
  phospholipid synthesis: increasing the phospholipid synthesis

## OCC(O)CO [glycerol]
Perfused rat heart [2]
  mitochondrial production of 14CO2 from glycerol: significantly increased
Perfused rat heart [3]; high glycerol concentration (3.33 mM), increased energetic demand 350 to 450 beats/min
  glycerol uptake: significant increase
Perfused rat heart [3]; low glycerol concentration (0.33 mM), increase in rate 350 to 450 beats/min
  glycerol uptake: not significantly modified
Perfused rat heart [4]; high glycerol concentration (3.33 mM)
  synthesis of glycerolipids: involved in the synthesis of both membrane phospholipids and storage triacylglycerols
Perfused rat heart [4]; low glycerol concentration (0.33 mM)
  synthesis of glycerolipids: does not influence
Perfused rat heart [5]
  FA β-oxidation ([3H]2O from palmitate): reduced
  glycerol oxidation ([14C]O2): increased
[1]; [6]
  PL concentration: increased progressively
  triacylglycerol concentration: only increased at higher glycerol concentrations
[1]; extracellular glycerol concentration from 80 μM to 660 μM
  glycerol uptake: increases
